In patent US20260273107A1, “COMPOUND PHARMACEUTICAL PREPARATION CONTAINING OIL COMPONENT COMPRISING POLYOXYETHYLENE STRUCTURE” (CHUGAI SEIYAKU KABUSHIKI KAISHA, priority 2022, published 2026):
≈ marks a conversion by molar mass, not a printed value. Where two headings read alike, the source gives them in different places. Numbered stars: 1 amine (or outer) side, 2 acyl side, 3 side chain; on linkers, the order of the positions; unused ones are H or OH. Bridge positions count the residues as written; N and C are the ends. Square brackets hold non-standard residues; d marks the D form. Peptide text beside a SMILES is read from it. * marks the point of attachment. hPhe(3-Cl-4-CF3) = N[C@@H](CCc1ccc(C(F)(F)F)c(Cl)c1)C(=O)O; X1 = CN(C(CC(=O)[*:2])C(=O)C1CCCCC1)[*:1]; Bta = N[C@@H](Cc1csc2ccccc12)C(=O)O; NMeCha = CN[C@@H](CC1CCCCC1)C(=O)O; NMeChg = CN[C@H](C(=O)O)C1CCCCC1; NMeF = CN[C@@H](Cc1ccccc1)C(=O)O; NMeI = CC[C@H](C)[C@H](NC)C(=O)O; NMeL = CN[C@@H](CC(C)C)C(=O)O; NMeV = CN[C@H](C(=O)O)C(C)C; NMeAbu = CC[C@H](NC)C(=O)O; NMeA = CN[C@@H](C)C(=O)O; Piperidide = C1CCN(*)CC1; Ac5c = NC1(C(=O)O)CCCC1; Sar = CNCC(=O)O; tBu = CC(C)(C)*

Assays:
[1] = Evaluation of Caco-2 membrane permeability; format: in vitro ADME; settings: human, Apical FaSSIF/HBSS pH 6.0 to Basal HBSS 4% BSA pH 7.4, 180 minutes, after 18 to 24 hours preincubation, read-out: Caco2 (Papp)
Protocol: The permeability coefficient (Caco-2 Papp (cm/sec)) is calculated using a numerical expression 1.
[formula] • where dQ/dt is the permeation rate of the drug (amount of drug appearing on the Basal side per unit time), S is the total cell surface area, and C1 (0) is the concentration of drug added on the Apical side.
Caco-2 cells were cultured on 96-well Transwell for 3 weeks, then DMEM, FaSSIF (1% DMSO), and the compound were added to the Apical side, DMEM was added to the Basal side, and the cells were preincubated under 5% CO2 at 37° C. with shaking at 80 rpm for 18 to 24 hours. After the preincubation, the preincubation solutions on the Apical side and Basal side were sucked off and washed, a FaSSIF/HBSS buffer solution (1% DMSO) (pH 6.0) containing the compound was added to the Apical side, a HBSS buffer solution (4% BSA) (pH 7.4) was added to the Basal side, and measurement of membrane permeability was started. Each well was shaken under 5% CO2 at 37° C. and 80 rpm, and at 180 minutes after the start of shaking, a sample on the Basal side was collected, and the permeation amount was measured by LC/MS. From the permeation amount, the membrane permeability coefficient (Papp) was calculated. Note that the description “Caco-2 (cm/sec)” in the column in the table herein is used synonymously with “Papp (cm/sec)”.

[2] = In vitro solubility evaluation in 50 mM phosphate buffer solution (PPB, pH 6.5), room temperature (Example 2-1); format: physicochemical; settings: 50 mM phosphate buffer pH 6.5, room temperature, shaking 24 hours, no surfactant; read-out: solubilities, PPb
Protocol: (§1) To lyophilized powder of the compound, a 50 mM phosphate buffer solution (PPB: Phosphate buffer, pH 6.5) was added, and after shaking (at room temperature, 1800 rpm, for 24 hours), the mixed solution was filtered through a filter, and the compound concentration of the filtrate was measured by LC/MS/MS. […] To the compound powder, Cremophor EL (CreEL) (manufactured by Sigma-Aldrich Co., Ltd., “Kolliphor EL”, generic name: polyoxyethylene castor oil, average number of moles of ethylene oxide added 35), Vitamin E TPGS (manufactured by Sigma-Aldrich Co., Ltd.), an aqueous solution containing 1% TW80 (manufactured by Nacalai Tesque, Inc.), an aqueous solution containing 1.5% Ploxamer 188 (manufactured by BASF SE), or an aqueous solution containing 0.5% Triton X-100 was added, the mixed solution was stirred (at room temperature, for 20 hours) with a stirrer, and then filtered through a filter, and the compound concentration of the filtrate was measured by LC/UV. Solubility (μg/mL) was calculated from the measured compound concentration. […] From the above, CreEL and Vitamin E TPGS were selected as substrates that improve solubility independently of compounds, and evaluation of oral absorbability was performed.

[3] = Solubility in the presence of a surfactant (Example 2-1); format: physicochemical; settings: room temperature, stirred 20 hours
Protocol: as §1

[4] = Solubility in aqueous solution containing 0.3% or 1% Cremophor EL (Example 3-3); format: physicochemical; settings: 25° C., 22 to 24 hours
Protocol: Evaluation of the solubility of the cyclic peptide compound in the presence of a surfactant was performed. To lyophilized powder of the compound, an aqueous solution containing 0.3% or 1% Cremophor EL (CreEL) was added, and after shaking (at 25° C., 1000 rpm, for 22 to 24 hours), the mixed solution was filtered through a filter, and the compound concentration of the filtrate was measured by LC/UV. Solubility (μg/mL) was calculated from the measured compound concentration.

[5] = Solubility of cyclic peptide compound in 50 mM phosphate buffer solution (pH 6.5), 37° C. (Example 3-3); format: physicochemical; settings: shaking 22 to 24 hours, read-out: solubility in 50 mM phosphate buffer solution (PPB)
Protocol: Evaluation of the solubility of the cyclic peptide compound was performed. To lyophilized powder of the compound, a 50 mM phosphate buffer solution (PPB: Phosphate buffer, pH 6.5) was added, and after shaking (at 37° C., 1800 rpm, for 22 to 24 hours), the mixed solution was filtered through a filter, and the compound concentration of the filtrate was measured by LC/MS/MS. Solubility was calculated from the measured compound concentration. The solubilities of the compounds 3, 4, 6, 7, and 8 were 11 μg/mL, 1 μg/mL, 1 μg/mL, 15 μg/mL, and 5 μg/mL, respectively.

[6] = 0.5% Triton X-100 aqueous solution, read-out: solubilities, TritonX-100 (0.5% aqueous solution)
[7] = 1% Cremophor EL aqueous solution, read-out: solubilities, CreEL (1% aqueous solution)
[8] = 1% TW80 aqueous solution, read-out: solubilities, TW80 (1% aqueous solution)
[9] = 1% Vitamin E TPGS aqueous solution, read-out: solubilities, VitaminE TPGS (1% aqueous solution)
[10] = 1.5% Poloxamer 188 aqueous solution, read-out: solubilities, Poloxamer 188 (1.5% aqueous solution)
[11] = 0.3% Cremophor EL aqueous solution, read-out: solubility, 0.3% Cremophor EL
[12] = 1% Cremophor EL aqueous solution, read-out: solubility, 1% Cremophor EL

Row | Structure (SMILES) | Papp A→B at 180 min [1] | solubility at 24 h [2] | solubility at 20 h [3, 6] | solubility at 20 h [3, 7] | solubility at 20 h [3, 8] | solubility at 20 h [3, 9] | solubility at 20 h [3, 10] | solubility [4, 11] | solubility [4, 12] | solubility [5]
1 | CC(C)C[C@@H]1NC(=O)[C@H](Cc2ccccc2)N(C)C(=O)[C@@H](C(C)C)NC(=O)C[C@@H](C(=O)N2CCCCC2)NC(=O)[C@H](C(C)C)N(C)C(=O)[C@H](Cc2ccccc2)N(C)C(=O)[C@H](COC(C)(C)C)NC(=O)[C@H](CC(C)C)N(C)C(=O)CN(C)C(=O)[C@H]([C@@H](C)O)NC(=O)[C@H](CC(C)C)N(C)C1=O [Compound 3] ([dV][NMeF]L[NMeL]T[Sar][NMeL]S(tBu)[NMeF][NMeV]D-Piperidide; lactam N-11) | 4.07 ×10⁻⁶ cm/s | – | – | – | – | – | – | 101 µg/mL (≈ 72.2 µM) | 395 µg/mL (≈ 282 µM) | 11 µg/mL (≈ 7.86 µM)
2 | CC(C)C[C@@H]1NC(=O)[C@H](Cc2ccccc2)N(C)C(=O)[C@H](COC(C)(C)C)NC(=O)[C@H](Cc2ccccc2)N(C)C(=O)[C@H](C)N(C)C(=O)[C@H](CC(C)C)N(C)C(=O)[C@@H](C)NC(=O)C[C@@H](C(=O)N2CCCCC2)NC(=O)[C@H](Cc2ccccc2)N(C)C(=O)[C@H]([C@@H](C)O)NC(=O)[C@H](CC(C)C)N(C)C1=O [Compound 4] ([dA][NMeL][NMeA][NMeF]S(tBu)[NMeF]L[NMeL]T[NMeF]D-Piperidide; lactam N-11) | 1.45 ×10⁻⁶ cm/s | – | – | – | – | – | – | 214 µg/mL (≈ 149 µM) | 789 µg/mL (≈ 550 µM) | 1 µg/mL (≈ 0.697 µM)

Second part, led by results:

Row | Papp A→B at 180 min [1] | solubility at 24 h [2] | solubility at 20 h [3, 6] | solubility at 20 h [3, 7] | solubility at 20 h [3, 8] | solubility at 20 h [3, 9] | solubility at 20 h [3, 10] | solubility [4, 11] | solubility [4, 12] | Structure (SMILES) | solubility [5]
3 | 0.71 ×10⁻⁶ cm/s | 1 µg/mL (≈ 0.694 µM) | 743 µg/mL | 3380 µg/mL | 1270 µg/mL | 3100 µg/mL | < 13 µg/mL | – | – | CC[C@H](C)[C@@H]1NC(=O)[C@H](CC(C)C)N(C)C(=O)CC(C(=O)C2CCCCC2)N(C)C(=O)[C@H](C2CCCCC2)N(C)C(=O)C2(CCCC2)NC(=O)[C@@H]2CCCN2C(=O)[C@H](CCc2ccc(C(F)(F)F)c(Cl)c2)NC(=O)CN(C)C(=O)[C@H](CC2CCCCC2)N(C)C(=O)CN(C)C(=O)CN(C)C1=O (stereo partly shown) [Compound 1] (cyclo([Ac5c][NMeChg][X1][NMeL]I[Sar][Sar][NMeCha][Sar][hPhe(3-Cl-4-CF3)]P)) | –
4 | 5.99 ×10⁻⁶ cm/s | 11 µg/mL (≈ 7.94 µM) | 498 µg/mL | 1050 µg/mL | 707 µg/mL | 1950 µg/mL | 31 µg/mL | – | – | CC[C@H](C)[C@H]1C(=O)N[C@@H](COC(C)(C)C)C(=O)N(C)[C@@H](Cc2ccccc2)C(=O)N(C)[C@@H](C(C)C)C(=O)N[C@H](C(=O)N2CCCCC2)CC(=O)N(C)[C@@H](C)C(=O)N(C)[C@@H](Cc2ccccc2)C(=O)N[C@@H](CC(C)C)C(=O)N(C)[C@@H](CC(C)C)C(=O)N[C@@H]([C@@H](C)O)C(=O)N(C)CC(=O)N1C [Compound 2] ([NMeA][NMeF]L[NMeL]T[Sar][NMeI]S(tBu)[NMeF][NMeV]D-Piperidide; lactam N-11) | –
5 | 1.42 ×10⁻⁶ cm/s | – | – | – | – | – | – | 295 µg/mL (≈ 209 µM) | 1110 µg/mL (≈ 785 µM) | CC[C@H]1C(=O)N[C@@H](COC(C)(C)C)C(=O)N(C)[C@@H](Cc2ccccc2)C(=O)N(C)[C@@H](C)C(=O)N[C@H](C(=O)N2CCCCC2)CC(=O)N[C@H](CC(C)C)C(=O)N(C)[C@@H](CC(C)C)C(=O)N[C@@H](Cc2csc3ccccc23)C(=O)N(C)[C@@H](CC(C)C)C(=O)N[C@@H]([C@@H](C)O)C(=O)N(C)CC(=O)N1C [Compound 5] ([dL][NMeL][Bta][NMeL]T[Sar][NMeAbu]S(tBu)[NMeF][NMeA]D-Piperidide; lactam N-11) | –
